This note sets out measurements from patent US20240150293A1, “SPIROCYCLOHEXANE DERIVATIVES, PHARMACEUTICAL COMPOSITIONS CONTAINING THEM AND THEIR USES AS ANTI-APOPTOTIC INHIBITORS” (LES LABORATOIRES SERVIER, priority 2021, published 2024).

What is called Ki is the equilibrium dissociation constant of an inhibitor or competing ligand from its target.

Structures are written as SMILES. Read-outs that look alike come from different tables or passages of the source.

In experiment [1] the target is Cy5-labelled Mcl1 (amino acids 171-321) C286S protein (UniProtKB Q07820) (Homo sapiens (Human), UniProt Q07820, C286S). The experiment is described as follows: Inhibition of Mcl-1 by the fluorescence quenching assay (Example A, Method B). It counts as binding. The procedure, abridged:
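Cy5-labelled Mcl1 171-321 C286S (1 nM) quenched by TQ5WS-labelled PUMA peptide (10, 20 or 400 nM); displacement raises fluorescence (Ex 620/Em 680 nm). Buffer 10 mM HEPES, 150 mM NaCl, 0.05% Tween 20, pH 7.4, 5% DMSO; 2 h at room temperature, 11-point curves, IC50 converted to Ki (cKi/eKi).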

Experiment [2] has as its system H929 multiple myeloma tumor line. Description: In vitro cytotoxicity, MTT assay (Example B, Method A). It counts as cell-based. The settings on record: H929 cells, 48 hours exposure, read-out: C50. How it is done:
The cytotoxicity studies were carried out on the H929 multiple myeloma tumor line.
The cells are distributed onto microplates and exposed to the test compounds for 48 hours. The cell viability is then quantified by a colorimetric assay, the Microculture Tetrazolium Assay (Carmichael et al, Cancer Res. 1987, 47, 939-942).
The results are expressed in C50 which means concentration corresponding to […] of effect/inhibition.
In general terms: Formazan colour is commonly taken as a measure of viable cells.

Chain of Cy5-labelled Mcl1 (amino acids 171-321) C286S protein (Q07820 171-321 C286S): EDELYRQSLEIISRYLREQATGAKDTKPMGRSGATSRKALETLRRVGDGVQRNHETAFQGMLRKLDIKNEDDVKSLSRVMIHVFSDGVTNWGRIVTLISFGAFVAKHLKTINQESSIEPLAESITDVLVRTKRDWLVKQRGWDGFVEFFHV

As for `Cc1cc2c(cc1C)[C@]1(CC[C@@](Nc3cccc(Cl)c3)(C(=O)O)CC1)[C@H](C[C@@H](C)COc1ccnc3ccsc13)C2` [Example 734, (1r,2′R,4R)-4-(3-chloroanilino)-5′,6′-dimethyl-2′-{(2R)-2-methyl-3-[(thieno[3,2-b]pyridin-7-yl)oxy]propyl}-2′,3′-dihydrospiro[cyclohexane-1,1′-indene]-4-carboxylic acid], the Ki in experiment [1] came out at 1.98 nM. In experiment [2] (Homo sapiens, NCI-H929, 48 h), the IC50 was 194 nM.
As to `O=C(O)[C@]1(Nc2cccc(Cl)c2)CC[C@@]2(CC1)c1ccccc1CC2CC(COc1ccnc2c1CCC2)COc1ccnc2c1CCC2` (single isomer, unassigned) [Example 497, (1r,4r)-4-(3-chloroanilino)-2′-(3-[(6,7-dihydro-5H-cyclopenta[b]pyridin-4-yl)oxy]-2-{[(6,7-dihydro-5H-cyclopenta[b]pyridin-4-yl)oxy]methyl}propyl)-2′,3′-dihydrospiro[cyclohexane-1,1′-indene]-4-carboxylic acid], the Ki in experiment [1] was 1.34 nM. Also, the IC50 in experiment [2] came out at 1220 nM.
Take `Cc1cc2c(cc1C)[C@]1(CC[C@@](Nc3cccc(Cl)c3)(C(=O)O)CC1)[C@@H](C[C@@H](C)COc1ccnc3ccsc13)C2` [Example 733, (1r,2′S,4S)-4-(3-chloroanilino)-5′,6′-dimethyl-2′-{(2R)-2-methyl-3-[(thieno[3,2-b]pyridin-7-yl)oxy]propyl}-2′,3′-dihydrospiro[cyclohexane-1,1′-indene]-4-carboxylic acid]: the Ki in experiment [1] came out at 1.52 nM. Also, the IC50 in experiment [2] (Homo sapiens, NCI-H929, 48 h) was 211 nM.
Consider `C[C@@H](COc1ccnc2c1CC(C)(C)C2)C[C@H]1Cc2ccccc2[C@]12CC[C@@](Nc1cccc(Cl)c1)(C(=O)O)CC2` [Example 611, (1r,2′S,4S)-4-(3-chloroanilino)-2′-{(2R)-3-[(6,6-dimethyl-6,7-dihydro-5H-cyclopenta[b]pyridin-4-yl)oxy]-2-methylpropyl}-2′,3′-dihydrospiro[cyclohexane-1,1′-indene]-4-carboxylic acid], for which the Ki in experiment [1] amounted to 12.3 nM. The IC50 in experiment [2] (Homo sapiens, NCI-H929, 48 h) turned out to be 1670 nM.
The like results for `C[C@@H](COc1ccnc2c1[C@H](C)CC[C@@H]2F)C[C@H]1Cc2ccccc2[C@]12CC[C@@](Nc1cccc(Cl)c1)(C(=O)O)CC2` [Example 688, (1r,2′S,4S)-4-(3-chloroanilino)-2′-[(2R)-3-{[(5S,8R)-8-fluoro-5-methyl-5,6,7,8-tetrahydroquinolin-4-yl]oxy}-2-methylpropyl]-2′,3′-dihydrospiro[cyclohexane-1,1′-indene]-4-carboxylic acid] were, in that order, 0.965 nM and 234 nM.
On the same counts, the results for `C[C@@H](COc1ccnc2ccsc12)C[C@H]1Cc2cc(F)ccc2[C@]12CC[C@@](Nc1cccc(Cl)c1)(C(=O)O)CC2` [Example 737, (1r,2′S,4S)-4-(3-chloroanilino)-5′-fluoro-2′-{(2R)-2-methyl-3-[(thieno[3,2-b]pyridin-7-yl)oxy]propyl}-2′,3′-dihydrospiro[cyclohexane-1,1′-indene]-4-carboxylic acid] are 0.932 nM and 191 nM.
Turning to `O=C(O)[C@]1(Nc2cccc(Cl)c2)CC[C@@]2(CC1)c1ccccc1CC2CC(COc1ccnc2ccsc12)Cc1ccccc1` (single isomer, unassigned) [Example 561, (1r,4r)-2′-{2-benzyl-3-[(thieno[3,2-b]pyridin-7-yl)oxy]propyl}-4-(3-chloroanilino)-2′,3′-dihydrospiro[cyclohexane-1,1′-indene]-4-carboxylic acid], the Ki in experiment [1] worked out at 57.1 nM. The IC50 in experiment [2] was determined as 12300 nM.
Take `C[C@@H](COc1ccnc2c1[C@H](C)CCC2)CC1=Cc2c(F)c(F)ccc2[C@]12CC[C@@](Nc1cccc(Cl)c1)(C(=O)O)CC2` [Example 744, (1r,4R)-4-(3-chloroanilino)-4′,5′-difluoro-2′-[(2R)-2-methyl-3-{[(5R)-5-methyl-5,6,7,8-tetrahydroquinolin-4-yl]oxy}propyl]spiro[cyclohexane-1,1′-indene]-4-carboxylic acid]: the Ki in experiment [1] was 0.342 nM. In addition, the IC50 in experiment [2] (Homo sapiens, NCI-H929, 48 h) worked out at 65.2 nM.
